Assays:
[1] = target: T1, EGFR L858R/T790M/C797S (BaF3-LTC cells) (Homo sapiens, UniProt P00533, C797S/L858R/T790M); assay: EGFR degradation HTRF assay, BaF3-LTC cells; type: cell-based; settings: BaF3-LTC cells; for DC50: EGFR degradation, IC50 (DC50) from curve fit, read-out: DC50(nM) BaF3-LTC; for Dmax: maximum percentage of inhibition (degradation), read-out: Dmax (%) BaF3-LTC
T1 construct: expressed in transfected cells; host or cells: BaF3
How it was run: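 Cells treated 16 h at 37 °C, 5% CO2 in medium with 0.2% DMSO; top final concentration 10 uM, 5-fold dilution, 8 doses. Lysates read by HTRF (665/620 nm); degradation % versus DMSO high control, DC50 from four-parameter fit, Dmax as maximal degradation.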

[2] = test system: EGFR Del19/T790M/C797S (H1975-clone #28); assay: EGFR degradation HTRF assay, H1975-clone #28 DTC cells; type: cell-based; settings: H1975 # 28 DTC cells; for DC50: EGFR degradation, IC50 (DC50) from curve fit, read-out: DC50(nM) H1975 # 28 DTC; for Dmax (%) H1975 # 28 DTC: maximum percentage of inhibition (degradation)
How it was run: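 The test uses H1975 clonal lines carrying lentiviral mutant EGFR with endogenous copies removed, treated 16h at 37° C., 5% CO2. EGFR left in the lysate is quantified by HTRF, and DC50 is derived from an 8-dose curve starting at 10 uM final.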

T1 sequence (P00533 25-1210 T790M/C797S/L858R): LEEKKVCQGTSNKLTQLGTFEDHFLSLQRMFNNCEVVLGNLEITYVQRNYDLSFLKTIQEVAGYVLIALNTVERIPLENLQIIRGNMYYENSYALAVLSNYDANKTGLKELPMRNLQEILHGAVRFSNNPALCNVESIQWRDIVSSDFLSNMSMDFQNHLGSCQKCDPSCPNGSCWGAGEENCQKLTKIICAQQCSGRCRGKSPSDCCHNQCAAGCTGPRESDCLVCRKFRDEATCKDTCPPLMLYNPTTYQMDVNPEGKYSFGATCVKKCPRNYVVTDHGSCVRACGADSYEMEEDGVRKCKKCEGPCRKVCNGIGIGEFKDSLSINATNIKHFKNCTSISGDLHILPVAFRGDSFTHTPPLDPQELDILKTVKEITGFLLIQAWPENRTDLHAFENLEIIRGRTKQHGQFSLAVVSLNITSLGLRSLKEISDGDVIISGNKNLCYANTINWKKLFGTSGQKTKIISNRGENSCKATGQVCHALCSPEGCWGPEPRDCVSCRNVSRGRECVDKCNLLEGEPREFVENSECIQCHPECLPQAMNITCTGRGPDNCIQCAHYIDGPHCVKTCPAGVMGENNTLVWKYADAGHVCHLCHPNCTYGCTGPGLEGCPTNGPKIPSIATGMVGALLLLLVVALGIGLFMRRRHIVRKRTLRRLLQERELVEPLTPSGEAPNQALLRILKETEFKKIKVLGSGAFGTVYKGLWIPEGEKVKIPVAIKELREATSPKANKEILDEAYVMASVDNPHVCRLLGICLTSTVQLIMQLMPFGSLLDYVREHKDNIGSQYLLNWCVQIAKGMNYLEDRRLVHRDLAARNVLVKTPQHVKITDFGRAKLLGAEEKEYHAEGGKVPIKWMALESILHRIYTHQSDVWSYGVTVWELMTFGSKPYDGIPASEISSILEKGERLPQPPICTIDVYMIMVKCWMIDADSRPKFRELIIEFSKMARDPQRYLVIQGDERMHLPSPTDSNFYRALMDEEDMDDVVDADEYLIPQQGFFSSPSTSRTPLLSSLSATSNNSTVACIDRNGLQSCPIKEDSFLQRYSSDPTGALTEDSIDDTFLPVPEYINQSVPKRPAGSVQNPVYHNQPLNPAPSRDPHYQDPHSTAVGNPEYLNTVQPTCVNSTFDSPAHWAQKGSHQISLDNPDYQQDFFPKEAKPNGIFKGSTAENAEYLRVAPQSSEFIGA

| DC50 [1] [nM] | DC50 [2] [nM] | Dmax [1] [%] | Compound | Dmax (%) H1975 # 28 DTC [2] [%] |
| --- | --- | --- | --- | --- |
| 8.61 | 4.29 | – | CCOc1cc(N2CCC(N3CCN(C(=O)[C@H]4CN(c5cc(F)c([C@H]6CCC(=O)NC6=O)c(F)c5)CC4(C)C)CC3)CC2)c(C)cc1Nc1ncc(Br)c(Nc2ccc3nc(C)ccc3c2P(C)(C)=O)n1 [Example 727, (R)-3-(4-((R)-4-(4-(1-(4-((5-bromo-4-((5-(dimethylphosphoryl)-2-methylquinolin-6-yl)amino)pyrimidin-2-yl)amino)-5-ethoxy-2-methylphenyl)piperidin-4-yl)piperazine-1-carbonyl)-3,3-dimethylpyrrolidin-1-yl)-2,6-difluorophenyl)piperidine-2,6-dione] | 77.39 |
| 9.14 | 0.803 | – | CCOc1cc(N2CCC(N3CCN(CCc4cc(F)c([C@H]5CCC(=O)NC5=O)c(F)c4)CC3)CC2)c(CC)cc1Nc1ncc(Br)c(Nc2ccc3nc(C)c(F)cc3c2P(C)(C)=O)n1 [Example 728, (R)-3-(4-(2-(4-(1-(4-((5-bromo-4-((5-(dimethylphosphoryl)-3-fluoro-2-methylquinolin-6-yl)amino)pyrimidin-2-yl)amino)-5-ethoxy-2-ethylphenyl)piperidin-4-yl)piperazin-1-yl)ethyl)-2,6-difluorophenyl)piperidine-2,6-dione] | 87.57 |
| 5.59 | 1.13 | – | COc1cc(N2CCC(N3CCN(C(=O)[C@H]4CN(c5cc(F)c([C@H]6CCC(=O)NC6=O)c(F)c5)CC4(C)C)CC3)CC2)c(C)cc1Nc1ncc(Br)c(Nc2ccc3nc(C)c(F)cc3c2P(C)(C)=O)n1 [Example 729, (R)-3-(4-((R)-4-(4-(1-(4-((5-bromo-4-((5-(dimethylphosphoryl)-3-fluoro-2-methylquinolin-6-yl)amino)pyrimidin-2-yl)amino)-5-methoxy-2-methylphenyl)piperidin-4-yl)piperazine-1-carbonyl)-3,3-dimethylpyrrolidin-1-yl)-2,6-difluorophenyl)piperidine-2,6-dione] | 88.94 |
| 81.1 | 8.9 | – | CCOc1cc(N2CCC(N3CCN(CCc4cc(F)c([C@H]5CCC(=O)NC5=O)c(F)c4)CC3)CC2)c(CC)cc1Nc1ncc(Cl)c(Nc2cc(F)c3nc(CC)ccc3c2P(C)(C)=O)n1 [Example 730, (R)-3-(4-(2-(4-(1-(4-((5-chloro-4-((5-(dimethylphosphoryl)-2-ethyl-8-fluoroquinolin-6-yl)amino)pyrimidin-2-yl)amino)-5-ethoxy-2-ethylphenyl)piperidin-4-yl)piperazin-1-yl)ethyl)-2,6-difluorophenyl)piperidine-2,6-dione] | 81.41 |
| 42.5 | 4.55 | – | CCOc1cc(N2CCC(N3CCN(CCc4c(F)cc(F)c5c4oc(=O)n5C4CCC(=O)NC4=O)CC3)CC2)c(CC)cc1Nc1ncc(Br)c(Nc2ccc3nc(CC)ccc3c2P(C)(C)=O)n1 (centres unmarked) [Example 731, 3-(7-(2-(4-(1-(4-((5-bromo-4-((5-(dimethylphosphoryl)-2-ethylquinolin-6-yl)amino)pyrimidin-2-yl)amino)-5-ethoxy-2-ethylphenyl)piperidin-4-yl)piperazin-1-yl)ethyl)-4,6-difluoro-2-oxobenzo[d]oxazol-3(2H)-yl)piperidine-2,6-dione] | 93.44 |
| 4.07 | 0.624 | – | COc1cc(N2CCC(N3CCN(C(=O)[C@@H]4CCN(c5cc(F)c([C@H]6CCC(=O)NC6=O)c(F)c5)C4)CC3)CC2)c(C)cc1Nc1ncc(Br)c(Nc2ccc3nc(C)c(F)cc3c2P(C)(C)=O)n1 [Example 732, (R)-3-(4-((R)-3-(4-(1-(4-((5-bromo-4-((5-(dimethylphosphoryl)-3-fluoro-2-methylquinolin-6-yl)amino)pyrimidin-2-yl)amino)-5-methoxy-2-methylphenyl)piperidin-4-yl)piperazine-1-carbonyl)pyrrolidin-1-yl)-2,6-difluorophenyl)piperidine-2,6-dione] | 86.49 |
| 89.9 | 7.25 | – | CCOc1cc(N2CCC(N3CCN(CCc4cc(F)c([C@H]5CCC(=O)NC5=O)c(F)c4)CC3)CC2)c(CC)cc1Nc1ncc(C)c(Nc2cc(F)c3nc(CC)ccc3c2P(C)(C)=O)n1 [Example 733, (R)-3-(4-(2-(4-(1-(4-((4-((5-(dimethylphosphoryl)-2-ethyl-8-fluoroquinolin-6-yl)amino)-5-methylpyrimidin-2-yl)amino)-5-ethoxy-2-ethylphenyl)piperidin-4-yl)piperazin-1-yl)ethyl)-2,6-difluorophenyl)piperidine-2,6-dione] | 84.52 |
| 7.79 | 0.9 | 92.2 | CCc1ccc2c(P(C)(C)=O)c(Nc3nc(Nc4cc(CC)c(N5CCC(N6CCN(CCCOc7cc(F)c([C@H]8CCC(=O)NC8=O)c(F)c7)CC6)CC5)cc4OC)ncc3Br)ccc2n1 [Example 734, (R)-3-(4-(3-(4-(1-(4-((5-bromo-4-((5-(dimethylphosphoryl)-2-ethylquinolin-6-yl)amino)pyrimidin-2-yl)amino)-2-ethyl-5-methoxyphenyl)piperidin-4-yl)piperazin-1-yl)propoxy)-2,6-difluorophenyl)piperidine-2,6-dione] | 76.3 |
| 18 | 0.641 | 87.4 | CCOc1cc(N2CCC(N3CCN(CCCOc4cc(F)c([C@H]5CCC(=O)NC5=O)c(F)c4)CC3)CC2)c(CC)cc1Nc1ncc(Br)c(Nc2ccc3c(=O)n(CC)ncc3c2P(C)(C)=O)n1 [Example 735, (R)-3-(4-(3-(4-(1-(4-((5-bromo-4-((5-(dimethylphosphoryl)-2-ethyl-1-oxo-1,2-dihydrophthalazin-6-yl)amino)pyrimidin-2-yl)amino)-5-ethoxy-2-ethylphenyl)piperidin-4-yl)piperazin-1-yl)propoxy)-2,6-difluorophenyl)piperidine-2,6-dione] | 80.09 |
| 4.01 | 0.564 | – | CCOc1cc(N2CCC(N3CCN(CCc4c(F)ccc5c4n(C)c(=O)n5C4CCC(=O)NC4=O)CC3)CC2)c(CC)cc1Nc1ncc(Br)c(Nc2ccc3nc(CC)ncc3c2P(C)(C)=O)n1 (centres unmarked) [Example 736, 3-(4-(2-(4-(1-(4-((5-bromo-4-((5-(dimethylphosphoryl)-2-ethylquinazolin-6-yl)amino)pyrimidin-2-yl)amino)-5-ethoxy-2-ethylphenyl)piperidin-4-yl)piperazin-1-yl)ethyl)-5-fluoro-3-methyl-2-oxo-2,3-dihydro-1H-benzol[d]imidazol-1-yl)piperidine-2,6-dione] | 81.93 |
| 3.72 | 0.944 | – | CCOc1cc(N2CCC(N3CCN(CCc4cccc5c4n(CC)c(=O)n5C4CCC(=O)NC4=O)CC3)CC2)c(CC)cc1Nc1ncc(Br)c(Nc2ccc3nc(CC)ncc3c2P(C)(C)=O)n1 (centres unmarked) [Example 737, 3-(4-(2-(4-(1-(4-((5-bromo-4-((5-(dimethylphosphoryl)-2-ethylquinazolin-6-yl)amino)pyrimidin-2-yl)amino)-5-ethoxy-2-ethylphenyl)piperidin-4-yl)piperazin-1-yl)ethyl)-3-ethyl-2-oxo-2,3-dihydro-1H-benzo[d]imidazol-1-yl)piperidine-2,6-dione] | 78.21 |
| 6.73 | 0.64 | – | CCOc1cc(N2CCC(N3CCN(CCc4cc(F)c([C@H]5CCC(=O)NC5=O)c(F)c4)CC3)CC2)c(CC)cc1Nc1ncc(Br)c(Nc2ccc3nc(C)ncc3c2P(C)(C)=O)n1 [Example 738, (R)-3-(4-(2-(4-(1-(4-((5-bromo-4-((5-(dimethylphosphoryl)-2-methylquinazolin-6-yl)amino)pyrimidin-2-yl)amino)-5-ethoxy-2-ethylphenyl)piperidin-4-yl)piperazin-1-yl)ethyl)-2,6-difluorophenyl)piperidine-2,6-dione] | 84.3 |
| 2.89 | 0.614 | – | CCc1cc(Nc2ncc(Br)c(Nc3ccc4nc(C)ncc4c3P(C)(C)=O)n2)c(OC)cc1N1CCC(N2CCN(CCc3cc(F)c([C@H]4CCC(=O)NC4=O)c(F)c3)CC2)CC1 [Example 739, (R)-3-(4-(2-(4-(1-(4-((5-bromo-4-((5-(dimethylphosphoryl)-2-methylquinazolin-6-yl)amino)pyrimidin-2-yl)amino)-2-ethyl-5-methoxyphenyl)piperidin-4-yl)piperazin-1-yl)ethyl)-2,6-difluorophenyl)piperidine-2,6-dione] | 85.55 |
| 4.11 | 0.717 | – | CCc1cc(Nc2ncc(Br)c(Nc3ccc4nc(C)ncc4c3P(C)(C)=O)n2)c(OC)cc1N1CCC(N2CCN(C(=O)[C@H]3CN(c4cc(F)c([C@H]5CCC(=O)NC5=O)c(F)c4)CC3(C)C)CC2)CC1 [Example 740, (R)-3-(4-((R)-4-(4-(1-(4-((5-bromo-4-((5-(dimethylphosphoryl)-2-methylquinazolin-6-yl)amino)pyrimidin-2-yl)amino)-2-ethyl-5-methoxyphenyl)piperidin-4-yl)piperazine-1-carbonyl)-3,3-dimethylpyrrolidin-1-yl)-2,6-difluorophenyl)piperidine-2,6-dione] | 87.27 |

From patent publication US20230265116A1, “DEGRADATION OF (EGFR) BY CONJUGATION OF EGFR INHIBITORS WITH E3 LIGASE LIGAND AND METHODS OF USE” (BEIGENE, LTD., priority 2020, published 2023)
